Patent US6960559B1, “Neurite growth regulatory factors” (University of Zurich, priority 1988, dated 2005)
Where a SMILES comes first, the peptide text is derived from it. The star is where a group is joined. Cbz = O=C(OCc1ccccc1)*

Legend:
C6 glioblastoma cells = assay: cells; assay type: cell-based, rat; settings: 2 h
Method: Rat C6 glioblastoma cells (Benda et al., 1968, Science 161:370-371) were cultured in Dulbecco's modified Eagle's medium (DMEM) supplemented with 10% fetal calf serum (FCS), usually to maximally 70-80% confluency (Paganetti et al., 1988, J. Cell Biol. 107:2281-2291). All cell culture media were routinely supplemented with penicillin and streptomycin. Cells were harvested by a short trypsin treatment (0.1% in Ca^2+/Mg^2+-free [CMF] PBS/EDTA solution for 90 seconds) followed by addition of DMEM/10% FCS and centrifugation (600×g, 6 min). The cell pellet was rinsed with 5 ml DMEM/10% FCS and centrifuged. For cell spreading assays, cells were resuspended at 10^6/ml in defined serum-free medium (MEMα) supplemented with 0.2 μg/ml insulin, 0.5 μg/ml transferrin and 0.12 μg/ml bovine serum albumin (BSA). Protease blockers or peptides were added directly to the cell suspension from 10×solutions 10 min before plating.
Spinal cord myelin from young adult Lewis rats was purified on a discontinuous sucrose gradient (Colman et al., 1982, J. Cell Biol. 95:598-608; Schwab and Caroni, 1988, J. Neurosci. 8:2381-2393) and stored in 100 mM sucrose, 25 mM TRIS/HCl pH 7.4 at −80° C. up to 6 months. The myelin suspension ([…]) was incubated for 30 min on poly-D-lysine-coated wells (PLYS-wells). Unbound myelin membranes were removed by rinsing twice with CMF-Hank's and once with MEMα. Myelin-coated wells were used immediately for the spreading assay by adding 9'000 C6 cells per cm^2. Experiments were scored as described (Paganetti et al., 1988, J. Cell Biol. 107:2281-2291).

C6 cells [1] = assay: C6 cell spreading on CNS myelin or PLYS with protease inhibitors; assay type: cell-based, rat
Method: Rat C6, mouse NIH 3T3 and B16 cells were cultured in Dulbecco's modified Eagle's medium (DMEM) supplemented with 10% fetal calf serum (FCS), usually to maximally 70-80% confluency. Cells were harvested with a short trypsin treatment (0.1% in Ca^2+/Mg^2+-free Hank's medium for 90 seconds) stopped by addition of FCS in excess, collected by centrifugation. Cells were resuspended in either DMEM/FCS or defined serum-free medium (MEM) and used for experiments. Dissociated rat CNS glial cells were prepared starting from optic nerves of 6-7 days old Lewis rats as described in Section 6.1.1, supra and plated into poly-D-lysine (PLYS) coated wells (100 mm^2, 100 μl medium) at a density of 20,000 cells per well. The culture medium was an enriched L15 medium with 5% rat serum, penicillin and streptomycin. C6, 3T3 and B16 cells were added to 2 day old cultures at a concentration of 30,000 cells per well, incubated for two hours and fixed with warm 4% formalin in phosphate buffer. Inhibitory oligodendrocytes were identified by double labelling using the specific antibodies O1 and O4 (see Section 6.1.3, supra).
Myelin from rat spinal cord (CNS) or sciatic nerve (PNS) purified on a discontinuous sucrose gradient as described in Section 6.1.5., was dried overnight onto PLYS coated wells (20 μg protein/well of 100 mm^2 surface). Unbound membranes were removed by three washes with Ca^2+/Mg^2+-free Hank's solution. Myelin coated wells were immediately used in substrate testing assays by the addition of 9,000 cells (C6, 3T3, or B16) per cm^2. Alternatively, we used extracted CNS myelin protein, or SDS-PAGE purified 35 and 250 kD inhibitory proteins reconstituted in liposomes (see Section 7.1.5, supra). Experiments were scored at different time points using a phase contrast microscope equipped with a photocamera. Quantifications were done using a surface integration program; three arbitrary fields were photographed for each well at a magnitude of 80×, at least 25 cells per picture were measured. Each point represents the mean of at least 3 wells±SEM. Results are expressed as μ^2 of projected cell surface, or as degree, which was calculated by subtracting from the projected surface value of a spreading cell, the surface value of a completely spheric cell.

C6 cells [2] = assay: C6 cell attachment and spreading on rat cerebellar frozen sections; assay type: cell-based; settings: 1,10-phenanthroline 50-300 μM; cbz-tyr-tyr 100 μM
Method: Adult rat cerebellum frozen sections were prepared and dried on glass coverslips. 70,000 C6, 3T3, or B16 cells in 100 μl were added to each well containing slices previously rinsed with cold DMEM/FCS. Cultures were incubated for 2 days at 37° C. Cultures were then fixed and stained with cresyl violet. Three to four cerebellum slices were used per point per experiment, with each experiment being repeated at least 2 times.

C6 cells [3] = assay: C6 cell infiltration into optic nerve explants; assay type: cell-based, rat; settings: nerves injected with 3 mM peptide, 0.5 mM in medium; 14 days
Method: Optic nerve and sciatic nerve explants were prepared as described (Schwab and Thoenen, 1985, J. Neurosci. 5:2415-2423). Briefly, the nerves were rapidly dissected from about 8 week old male rats, cleaned from the meninges, 3 times frozen and thawed using liquid nitrogen, and placed under a teflon ring (diameter 13 mm, thickness 1 mm) sealed to a culture dish with silicon grease. Two chambers connected only by the explants were in this way obtained. 300,000 C6, 3T3 or B16 cells were plated in the inner chamber in DMEM/FCS and incubated for 5 to 20 days. The medium was changed every other day. Cultures were fixed overnight with 4% formalin. The nerve explants were mounted with Tissue-Tek, 10 to 15 μm sections were cut in a cryostate and collected on gelatine coated cover slips. After drying at room temperature overnight, the sections were stained in 0.75% cresyl violet, and evaluated. The infiltrated cells were counted for each 0.1 mm of the explants, starting from the tip where cells were added. Due to the 15 day incubation, the explants were often different in diameter. Therefore, only the central part of the nerves (0.25 mm) were considered, since only this part of the explants presented a good histological quality. Inhibition experiments were performed with nerve explants previously injected from both sides with 2 μl of 3 mM cbz-tyr-tyr or cbz-ala-phe solutions.

IC50 (C6 glioblastoma cells): 300 µM
SMILES: O=C(N[C@@H](Cc1ccc(O)cc1)C(=O)N[C@@H](Cc1ccc(O)cc1)C(=O)O)OCc1ccccc1 [cbz-tyr-tyr, carbobenzoxy-tyrosine-tyrosine] (Cbz-Tyr-Tyr-OH)
Maximal inhibition of C6 cell spreading on CNS myelin (C6 cells [1]; 2 h): up to 67%
Inhibition on CNS (%) (C6 cells [1]; C6 cells, spreading on PLYS minus spreading on CNS myelin): 45%
C6 cells on white matter of cerebellar frozen sections, in words (C6 cells [2]): dramatically changed the distribution and behavior of C6 cells on the white matter areas
C6 cell infiltration into optic nerve explants, in words (C6 cells [3]): inhibited C6 cell infiltration in all the 8 nerves examined
